29 compounds from US8202865B2, “Oxadiazole derivatives” (Merck Serono SA, priority 2007, dated 2012) can be followed below.

Structures can show the parent of a compound that is named as a salt.

What is called EC50 is the midpoint of the concentration-response curve.

The target in this test is T1, S1P1 (Homo sapiens, UniProt P21453).
T1 construct: expressed in transfected cells; host or cells: CHO cells (membranes)
The test can be described thus: 35S-GTPγS binding, S1P1 membranes. It counts as biochemical. The settings on record: membranes from CHO cells expressing S1P1; 60 min 30° C. The procedure:
Receptor binding assay: Membranes were prepared from CHO cells expressing S1P1 or S1P3 for use in ligand and […] binding studies. Cells were suspended in 50 mM TRIS, pH 7.4, 2 mM EDTA, 250 mM Sucrose (buffer A) and 1× Complete protease inhibitor cocktail (Roche), and disrupted at 4° C. by N2 decompression using a cell disruption bomb (Parr Instrument). Following centrifugation at 1000 RPM for 10 min at 4° C., the supernatant was suspended in buffer A and centrifuged again at 19000 RPM for 60 min at 4° C. The pellet was then suspended in 10 mM HEPES, pH 7.4, 1 mM EDTA, 250 mM Sucrose (Buffer B), and 1× Complete EDTA-free protease inhibitor cocktail and homogenized using a potter. Membranes were flash frozen in liquid N2 and stored at −80° C. [33P]sphingosine 1-phosphate (3000 Ci/mmol; American Radiolabeled Chemicals, Inc.) was added to test compounds in DMSO. Membranes and WGA SPA beads (GE Healthcare) were added to give a final volume of 100 μl in 96-well plates with assay concentrations of 25 pM or 10 pM [33P]sphingosine 1-phosphate (respectively for S1P1 or S1P3), 50 mM HEPES, pH 7.5, 5 mM MgCl2, 100 mM NaCl, 0.4% fatty acid-free BSA, 1-5 μg/well of proteins and 100 μg/well of WGA SPA beads. Binding was performed for 60 min at RT on a shaker and bound radioactivity was measured on a PerkinElmer 1450 MicroBeta counter. Specific binding was calculated by subtracting remaining radioactivity in the presence of 1000-fold excess of unlabeled S1P. Binding data were analyzed using the GraphPad Prism program.
Measurements of ^35S-GTPγS Binding: Membranes (1 to 10 μg protein) prepared as described above, were incubated in 96-well Scintiplates (PerkinElmer) with test compounds diluted in DMSO, in 180 μl of 20 mM HEPES, pH 7.4, 10 mM MgCl2, 2 μg/well Saponin, 0.2% fatty acid free BSA (Assay buffer), 140 mM NaCl and 1.7 μM GDP. The assay was initiated with the addition of 20 μl of 1.5 nM [35S]-GTPγS (1100 Ci/mmol; GE Healthcare) in assay buffer. After 60 min incubation at 30° C. on a shaker, plates were centrifuged for 10 min at 2000 RPM. Supernatant was discarded and membrane bound radioactivity was measured on a PerkinElmer 1450 MicroBeta counter. Triplicate samples were averaged and expressed as % response relative to S1P activation in absence of compound (n=2).

T1 sequence (P21453 whole entry, species assumed): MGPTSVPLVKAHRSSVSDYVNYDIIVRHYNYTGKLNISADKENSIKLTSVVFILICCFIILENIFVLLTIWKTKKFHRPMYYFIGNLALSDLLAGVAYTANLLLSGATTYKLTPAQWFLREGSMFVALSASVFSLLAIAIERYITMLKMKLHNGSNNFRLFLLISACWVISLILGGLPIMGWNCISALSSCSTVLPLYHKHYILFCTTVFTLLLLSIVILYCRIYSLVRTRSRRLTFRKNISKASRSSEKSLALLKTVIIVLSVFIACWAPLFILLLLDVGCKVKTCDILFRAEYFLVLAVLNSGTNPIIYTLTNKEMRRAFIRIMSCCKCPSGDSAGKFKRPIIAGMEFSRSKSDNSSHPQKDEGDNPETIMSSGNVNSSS

In the case of `CNCc1cc(-c2nc(-c3ccc(C(=O)O)c(F)c3)no2)ccc1-c1ccccc1C` [Example 77, 2-fluoro-4-(5-{2′-methyl-2-[(methylamino)methyl]biphenyl-4-yl}-1,2,4-oxadiazol-3-yl)benzoic acid, Hydrochloride salt], the midpoint of the response, the EC50, lay at 2900 nM.
Next, `COCc1cc(-c2nc(-c3cc(Cl)c(C(=O)O)cc3F)no2)ccc1-c1ccccc1C` [Example 109, 2-chloro-5-fluoro-4-{5-[2-(methoxymethyl)-2′-methylbiphenyl-4-yl]-1,2,4-oxadiazol-3-yl}benzoic acid]: 90 nM; `CC1CCCCN1c1ccc(-c2nc(-c3ccc(S(N)(=O)=O)cc3)no2)cc1C(F)(F)F` (centres unmarked) [Example 38, 4-{5-[4-(2-methylpiperidin-1-yl)-3-(trifluoromethyl)phenyl]-1,2,4-oxadiazol-3-yl}benzenesulfonamide]: 1.5 nM.
To `COc1cc(-c2nc(-c3ccc(S(N)(=O)=O)cc3)no2)ccc1-c1cscc1C` [Example 39, 4-{5-[3-methoxy-4-(4-methyl-3-thienyl)phenyl]-1,2,4-oxadiazol-3-yl}benzenesulfonamide] belongs 2.9 nM.
For `COCc1cc(-c2nc(-c3cccc(CNCCO)c3)no2)ccc1-c1ccccc1C` [Example 187, 2-[(3-{5-[2-(methoxymethyl)-2′-methylbiphenyl-4-yl]-1,2,4-oxadiazol-3-yl}benzyl)amino]ethanol, Hydrochloride salt], the midpoint of the response, the EC50, lay at 2 nM.
Consider `COCc1cc(-c2nc(-c3ccc(OCCCC(=O)O)c(F)c3)no2)ccc1N1CCCCC1C` (centres unmarked) [Example 165, 4-(2-fluoro-4-{5-[3-(methoxymethyl)-4-(2-methylpiperidin-1-yl)phenyl]-1,2,4-oxadiazol-3-yl}phenoxy)butanoic acid], for which the concentration giving a half-maximal response (EC50) was 1.6 nM.
`COCc1cc(-c2nc(-c3cccc(C(=O)NCCC(=O)OC)c3)no2)ccc1-c1ccccc1C` [Example 132, Methyl N-(3-{5-[2-(methoxymethyl)-2′-methylbiphenyl-4-yl]-1,2,4-oxadiazol-3-yl}benzoyl)-beta-alaninate] yielded an EC50 of 2.9 nM.
Consider `O=C(O)c1ccc(-c2noc(-c3ccc([N+](=O)[O-])c(N4CCCCC4)c3)n2)cc1F` [Example 21, 2-fluoro-4-[5-(4-nitro-3-piperidin-1-ylphenyl)-1,2,4-oxadiazol-3-yl]benzoic acid], for which a half-maximal response (EC50) required 9740 nM.
Compound `CC(=O)Nc1cc(-c2nc(-c3ccc(C(=O)O)c(F)c3)no2)ccc1N1CCCCC1C` (centres unmarked) [Example 65, 4-{5-[3-(acetylamino)-4-(2-methylpiperidin-1-yl)phenyl]-1,2,4-oxadiazol-3-yl}-2-fluorobenzoic acid] displayed a 50% effective concentration (EC50) of 10400 nM.
`Cc1ccccc1-c1ccc(-c2nc(-c3ccc(C(=O)O)c(F)c3)no2)cc1OCC(C)C` [Example 104, 2-fluoro-4-[5-(2-isobutoxy-2′-methylbiphenyl-4-yl)-1,2,4-oxadiazol-3-yl]benzoic acid] yielded a 50% effective concentration (EC50) of 800 nM.
To `COCc1cc(-c2nc(-c3ccc(C(=O)O)c(F)c3)no2)ccc1-c1ccccc1Cl` [Example 98, 4-{5-[2′-chloro-2-(methoxymethyl)biphenyl-4-yl]-1,2,4-oxadiazol-3-yl}-2-fluorobenzoic acid] belongs 67 nM; to `COCC#Cc1cc(-c2nc(-c3ccc(C(=O)O)c(F)c3)no2)ccc1-c1ccccc1C` [Example 96, 2-fluoro-4-{5-[2-(3-methoxyprop-1-yn-1-yl)-2′-methylbiphenyl-4-yl]-1,2,4-oxadiazol-3-yl}benzoic acid], 462 nM.
To `COCc1cc(-c2nc(-c3cc(Cl)c(C(=O)O)cc3OC)no2)ccc1-c1ccccc1C` [Example 115, 2-chloro-5-methoxy-4-{5-[2-(methoxymethyl)-2′-methylbiphenyl-4-yl]-1,2,4-oxadiazol-3-yl}benzoic acid] belongs 246 nM.
`COCc1cc(-c2nc(-c3ccc(C(=O)NC(C)(C)C(=O)OC)c(F)c3)no2)ccc1-c1ccccc1C` [Example 128, Methyl N-(2-fluoro-4-{5-[2-(methoxymethyl)-2′-methylbiphenyl-4-yl]-1,2,4-oxadiazol-3-yl}benzoyl)-2-methylalaninate] registered an EC50 of 154 nM.
To `CCOC(=O)CC(C)NC(=O)c1ccc(-c2noc(-c3ccc(-c4ccccc4C)c(COC)c3)n2)cc1F` (centres unmarked) [Example 121, Ethyl 3-[(2-fluoro-4-{5-[2-(methoxymethyl)-2′-methylbiphenyl-4-yl]-1,2,4-oxadiazol-3-yl}benzoyl)amino]butanoate] belongs 281 nM; to `O=C(O)COc1ccc(-c2noc(-c3cnc(OCC4CC4)c(Cl)c3)n2)cc1F` [Example 52, (4-{5-[5-chloro-6-(cyclopropylmethoxy)pyridin-3-yl]-1,2,4-oxadiazol-3-yl}-2-fluorophenoxy)acetic acid], 1540 nM.
Turning to `Cc1ccccc1-c1ccc(-c2nc(-c3ccc(C(=O)O)c(F)c3)no2)cc1` [Example 5, 2-fluoro-4-[5-(2′-methylbiphenyl-4-yl)-1,2,4-oxadiazol-3-yl]benzoic acid], a half-maximal response (EC50) required 5140 nM.
Next, `Cc1ccccc1-c1ccc(-c2nc(-c3ccc(C(=O)O)cc3)no2)cc1C` [Example 42, 4-[5-(2,2′-dimethylbiphenyl-4-yl)-1,2,4-oxadiazol-3-yl]benzoic acid]: 1690 nM; `CCc1cnc(CCNC(=O)c2ccc(-c3noc(-c4ccc(-c5ccccc5C)c(COC)c4)n3)cc2F)o1` [Example 176, N-[2-(5-ethyl-1,3-oxazol-2-yl)ethyl]-2-fluoro-4-{5-[2-(methoxymethyl)-2′-methylbiphenyl-4-yl]-1,2,4-oxadiazol-3-yl}benzamide]: 197 nM.
Turning to `COCc1cc(-c2nc(-c3cc(F)c(C(=O)O)cc3OC)no2)ccc1-c1ccccc1C` [Example 112, 2-fluoro-5-methoxy-4-{5-[2-(methoxymethyl)-2′-methylbiphenyl-4-yl]-1,2,4-oxadiazol-3-yl}benzoic acid], the 50% effective concentration (EC50) came out at 102 nM.
`COCc1cc(-c2nc(-c3cccc(C(=O)N(C)CC(=O)O)c3)no2)ccc1-c1ccccc1C` [Example 138, N-(3-{5-[2-(methoxymethyl)-2′-methylbiphenyl-4-yl]-1,2,4-oxadiazol-3-yl}benzoyl)-N-methylglycine]: the EC50 amounted to 48.6 nM.
In turn, `COCc1cc(-c2nc(-c3cccc(COCCO)c3)no2)ccc1-c1ccccc1C` [Example 193, 2-[(3-{5-[2-(methoxymethyl)-2′-methylbiphenyl-4-yl]-1,2,4-oxadiazol-3-yl}benzyl)oxy]ethanol] yielded an EC50 of 1.8 nM.
Regarding `COc1cc(-c2noc(-c3ccc(-c4ccccc4C)c(C)c3)n2)ccc1C(=O)O` [Example 46, 4-[5-(2,2′-dimethylbiphenyl-4-yl)-1,2,4-oxadiazol-3-yl]-2-methoxybenzoic acid], the concentration for a half-maximal effect (EC50) worked out at 2270 nM.
Next, `COCc1cc(-c2nc(-c3ccc(C(=O)NC(C)(C)C(=O)O)c(F)c3)no2)ccc1-c1ccccc1C` [Example 129, N-(2-fluoro-4-{5-[2-(methoxymethyl)-2′-methylbiphenyl-4-yl]-1,2,4-oxadiazol-3-yl}benzoyl)-2-methylalanine]: 40 nM; `Cc1ccccc1-c1ccc(-c2nc(-c3ccc(C(=O)O)c(F)c3)no2)cc1S(C)(=O)=O` [Example 83, 2-fluoro-4-{5-[2′-methyl-2-(methylsulfonyl)biphenyl-4-yl]-1,2,4-oxadiazol-3-yl}benzoic acid]: 3990 nM.
Compound `COCc1cc(-c2nc(-c3cc(C(=O)O)ccc3OC)no2)ccc1-c1ccccc1C` [Example 107, 4-methoxy-3-{5-[2-(methoxymethyl)-2′-methylbiphenyl-4-yl]-1,2,4-oxadiazol-3-yl}benzoic acid] showed an EC50 of 133 nM.
The compound `COCc1ccccc1-c1ccc(-c2nc(-c3ccc(C(=O)O)c(F)c3)no2)cc1C` [Example 87, 2-fluoro-4-{5-[2′-(methoxymethyl)-2-methylbiphenyl-4-yl]-1,2,4-oxadiazol-3-yl}benzoic acid] yielded an EC50 of 2010 nM.
`COCc1cc(-c2nc(-c3ccc(C(=O)OC)c(F)c3)no2)ccc1OC(C)C` [Example 110, methyl 2-fluoro-4-{5-[4-isopropoxy-3-(methoxymethyl)phenyl]-1,2,4-oxadiazol-3-yl}benzoate] had a 50% effective concentration (EC50) of 240 nM.
For `COCc1cc(-c2nc(-c3cccc(C(=O)NCC(=O)O)c3)no2)ccc1-c1ccccc1C` [Example 134, N-(3-{5-[2-(methoxymethyl)-2′-methylbiphenyl-4-yl]-1,2,4-oxadiazol-3-yl}benzoyl)glycine], the concentration for a half-maximal effect (EC50) was 5.1 nM.
